This passage reports IC50 results from EP2061765B1, “Serine-threonine protein kinase and PARP modulators” (Senhwa Biosciences, Inc., priority 2006, dated 2008).

One assay has as its system PanC1. Nature of the assay: Cell proliferation assay (Alamar Blue). The following applies: Homo sapiens, PANC-1, 96 h, PanC1 cells, four days. The assay is classed as cell-based. The method, boiled down: (§1)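 Fluorescence read-out (ex 544 nm, em 590 nm) after a four-hour Alamar Blue incubation, which follows four days of compound exposure at 37°C in 5% CO2. Seeding density is 4,000-5,000 cells per well.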
A general note: Resazurin is reduced to fluorescent resorufin, in cell work by metabolically active cells.

A further assay concerns BxPC3. The assay can be described thus: Cell proliferation assay (Alamar Blue). Type of assay: cell-based. To be noted: Homo sapiens, BXPC-3, 96 h, BxPC3 cells, four days. The method, boiled down: as §1

Bounds are passed on as bounds.

For orientation: IC50 means the point on the concentration scale where inhibition reaches its midpoint. A lower IC50 goes with greater potency in that assay.

As to `C#Cc1cccc(Nc2nc3cc(C(=O)O)ccc3c3cnc(NCCC)nc23)c1` [drawing 471], the concentration for half-maximal inhibition (IC50) in the assay on PanC1 is 8.12 µM; in the assay on BxPC3 it was 3 µM.

Turning to `C#Cc1cccc(Nc2nc3cc(C(=O)O)ccc3c3cnc(NCCOC)nc23)c1` [drawing 472], the IC50 in the assay with PanC1 amounted to 4.61 µM; with BxPC3 it was 1.17 µM.

As to `C#Cc1cccc(Nc2nc3cc(C(=O)O)ccc3c3cnc(NC4CCNCC4)nc23)c1` [drawing 473], the results for the half-inhibitory concentration (IC50) with PanC1 and with BxPC3 were greater than 50 µM and 25.3 µM, respectively.

Consider `C#Cc1cccc(Nc2nc3cc(C(=O)O)ccc3c3cnc(NCCCN4CCOCC4)nc23)c1` [drawing 474], for which the IC50 is 11.2 µM in the assay with PanC1 and 3.6 µM in the assay with BxPC3.

Turning to `C#Cc1cccc(Nc2nc3cc(C(=O)O)ccc3c3cnc(NC)nc23)c1` [drawing 475], the half-inhibitory concentration (IC50) in the assay on PanC1 was found to be 13.8 µM; in the assay with BxPC3 it was 1.6 µM.

On to `O=C(O)c1ccc2c(c1)nc(Nc1ccc(Cl)c(C(F)(F)F)c1)c1ccncc12` [drawing 476], for which the IC50 in the assay with PanC1 worked out at 17.9 µM; in the assay with BxPC3, 2.6 µM.

`O=C(O)c1ccc2c(c1)nc(Nc1cccc(Cl)c1)c1nc(NC3CC3)ncc12` [drawing 477]: the IC50 turned out to be 4.61 µM in the assay on PanC1 and 1.95 µM in the assay with BxPC3.

As to `O=C(O)c1ccc2c(c1)nc(Nc1cccc(C(F)(F)F)c1)c1ncncc12` [drawing 478], the IC50 with PanC1 was determined as 35.2 µM; in the assay on BxPC3, 4.31 µM.

For the compound `CCOc1ncc2c(n1)c(Nc1cccc(C(F)(F)F)c1)nc1cc(C(=O)O)ccc12` [drawing 479], the IC50 in the assay with PanC1 was greater than 50 µM; in the assay with BxPC3 it was 49.6 µM.

Take `CNc1ncc2c(n1)c(Nc1cccc(Cl)c1)nc1cc(C(=O)O)ccc12` [drawing 480]: the IC50 in the assay on PanC1 was 8.3 µM; in the assay on BxPC3, 2.56 µM.

With `CN(C)c1ncc2c(n1)c(Nc1cccc(Cl)c1)nc1cc(C(=O)O)ccc12` [drawing 481], the IC50 in the assay on PanC1 is greater than 50 µM; in the assay on BxPC3 it was 42.7 µM.

For the compound `Nc1ncc2c(n1)c(Nc1cccc(Cl)c1)nc1cc(C(=O)O)ccc12` [drawing 482], the values for the IC50 in the assay with PanC1 and in the assay with BxPC3 were 3.62 µM and 0.61 µM, respectively.

As for `CC(C)Nc1ncc2c(n1)c(Nc1cccc(Cl)c1)nc1cc(C(=O)O)ccc12` [drawing 483], the IC50 is 33.2 µM in the assay with PanC1 and 36.9 µM in the assay on BxPC3.

On to `O=C(O)c1ccc2c(c1)nc(Nc1cccc(C(F)(F)F)c1)c1nc(NC3CC3)ncc12` [drawing 484], for which the results for the IC50 in the assay on PanC1 and in the assay on BxPC3 were 2.03 µM and 10 µM, respectively.

In the case of `CCNc1ncc2c(n1)c(Nc1cccc(Cl)c1)nc1cc(C(=O)O)ccc12` [drawing 485], the figures for the IC50 in the assay on PanC1 and in the assay on BxPC3 were 1.61 µM and 2.37 µM, respectively.

For `CNc1ncc2c(n1)c(Nc1ccc(F)c(Cl)c1)nc1cc(C(=O)O)ccc12` [drawing 486], the values for the 50% inhibitory concentration (IC50) in the assay with PanC1 and in the assay on BxPC3 were greater than 50 µM and 1.46 µM, respectively.

With `Nc1ncc2c(n1)c(Nc1ccc(F)c(Cl)c1)nc1cc(C(=O)O)ccc12` [drawing 487], the figures for the IC50 with PanC1 and with BxPC3 were 8.03 µM and 0.7 µM, respectively.

Regarding `O=C(O)c1ccc2c(c1)nc(Nc1ccc(F)c(Cl)c1)c1nc(NC3CC3)ncc12` [drawing 488], the figures for the IC50 in the assay with PanC1 and in the assay on BxPC3 were 8.53 µM and 9.48 µM, respectively.

`COCCNc1ncc2c(n1)c(Nc1ccc(F)c(Cl)c1)nc1cc(C(=O)O)ccc12` [drawing 489]: the values for the IC50 in the assay on PanC1 and with BxPC3 were greater than 50 µM and 1.61 µM, respectively.

For `C#Cc1cccc(Nc2nc3cc(C(=O)O)ccc3c3cnc(NCCOCC)nc23)c1` [drawing 490], the IC50 with PanC1 was 2.41 µM; with BxPC3, 0.69 µM.

Turning to `C#Cc1cccc(Nc2nc3cc(C(=O)O)ccc3c3cnc(NCCCOCC)nc23)c1` [drawing 491], the results for the IC50 in the assay on PanC1 and with BxPC3 were 1.04 µM and 0.48 µM, respectively.

Turning to `C#Cc1cccc(Nc2nc3cc(C(=O)O)ccc3c3cnc(NCCCOC(C)C)nc23)c1` [drawing 492], the figures for the IC50 in the assay on PanC1 and in the assay with BxPC3 were 3.1 µM and 0.97 µM, respectively.

Consider `O=C(O)c1ccc2c(c1)nc(Nc1cccc(Cl)c1)c1nc(O)ncc12` [drawing 493], for which the IC50 in the assay on PanC1 is greater than 50 µM; with BxPC3, 15.8 µM.

For the compound `Cc1ncc2c(n1)c(Nc1cccc(Cl)c1)nc1cc(C(=O)O)ccc12` [drawing 494], the half-inhibitory concentration (IC50) in the assay on PanC1 was greater than 50 µM; in the assay with BxPC3, 8.88 µM.

Take `C#Cc1cccc(Nc2nc3cc(C(=O)OC)ccc3c3cnc(NOC)nc23)c1` [drawing 495]: the half-maximal inhibitory concentration (IC50) in the assay with PanC1 is greater than 50 µM; in the assay with BxPC3 it was 40 µM.

Regarding `COC(=O)c1ccc2c(c1)nc(Nc1cccc(Cl)c1)c1nc(NCCC(N)=O)ncc12` [drawing 496], the IC50 in the assay with PanC1 came to 25.5 µM; in the assay with BxPC3, 2.62 µM.

As to `NC(=O)CCNc1ncc2c(n1)c(Nc1cccc(Cl)c1)nc1cc(C(=O)O)ccc12` [drawing 497], the IC50 is greater than 50 µM in the assay on PanC1 and 20.9 µM with BxPC3.

Turning to `O=C(O)CCNc1ncc2c(n1)c(Nc1cccc(Cl)c1)nc1cc(C(=O)O)ccc12` [drawing 498], the IC50 in the assay on PanC1 was greater than 50 µM; in the assay with BxPC3, 43.5 µM.

Turning to `Cc1cccc(Nc2nc3cc(C(=O)O)ccc3c3cnccc23)c1` [drawing 499], the IC50 in the assay on PanC1 was found to be 38 µM; in the assay with BxPC3, 2.23 µM.

As for `O=C(O)c1ccc2c(c1)nc(Nc1cccc(C(F)(F)F)c1)c1ccncc12` [drawing 500], the half-inhibitory concentration (IC50) in the assay with PanC1 was 27.2 µM; in the assay with BxPC3, 2.6 µM.

Regarding `O=C(O)c1ccc2c(c1)nc(Nc1cc(F)cc(F)c1)c1nc(NC3CC3)ncc12` [drawing 501], the results for the IC50 with PanC1 and in the assay with BxPC3 were 16.1 µM and 14.9 µM, respectively.

On to `O=C(O)c1ccc2c(c1)nc(Nc1cccc(F)c1)c1nc(NC3CC3)ncc12` [drawing 502], for which the figures for the IC50 in the assay on PanC1 and with BxPC3 were 2.81 µM and 9.89 µM, respectively.

Consider `COc1cccc(Nc2nc3cc(C(=O)O)ccc3c3cnc(NC4CC4)nc23)c1` [drawing 503], for which the values for the IC50 in the assay on PanC1 and in the assay on BxPC3 were 3.48 µM and 8.68 µM, respectively.

Consider `CN(C)CCNc1ncc2c(n1)c(Nc1ccc(F)c(Cl)c1)nc1cc(C(=O)O)ccc12` [drawing 504], for which the results for the IC50 with PanC1 and in the assay on BxPC3 were 44.9 µM and 1.52 µM, respectively.

As to `O=C(O)c1ccc2c(c1)nc(Nc1ccc(F)c(Cl)c1)c1nc(NCc3ccccn3)ncc12` [drawing 505], the IC50 in the assay on PanC1 was greater than 50 µM; with BxPC3 it was 11.1 µM.

Regarding `COC(CNc1ncc2c(n1)c(Nc1ccc(F)c(Cl)c1)nc1cc(C(=O)O)ccc12)OC` [drawing 506], the IC50 in the assay with PanC1 came out at 41.5 µM; with BxPC3, 2.86 µM.

As for `NC(=O)c1ccc2c(c1)nc(Nc1cccc(C(F)(F)F)c1)c1nc(NC3CC3)ncc12` [drawing 507], the IC50 in the assay on PanC1 is greater than 50 µM; in the assay with BxPC3, 0.33 µM.

For the compound `O=C(NC1CC1)c1ccc2c(c1)nc(Nc1cccc(C(F)(F)F)c1)c1nc(NC3CC3)ncc12` [drawing 508], the IC50 in the assay with PanC1 was found to be 16 µM; with BxPC3, 2.73 µM.

Regarding `CNC(=O)c1ccc2c(c1)nc(Nc1cccc(C(F)(F)F)c1)c1nc(NC3CC3)ncc12` [drawing 509], the IC50 was 18.9 µM in the assay with PanC1 and 3 µM in the assay on BxPC3.

Take `O=C(O)c1ccc2c(c1)nc(Nc1ccc(F)c(Cl)c1)c1nc(NCc3cccnc3)ncc12` [drawing 510]: the values for the IC50 in the assay on PanC1 and in the assay with BxPC3 were 20.9 µM and 3.16 µM, respectively.

Turning to `O=C(O)c1ccc2c(c1)nc(Nc1ccccc1)c1nc(Nc3ccccc3)ncc12` [drawing 512], the results for the 50% inhibitory concentration (IC50) in the assay on PanC1 and in the assay with BxPC3 were 3.72 µM and 40.1 µM, respectively.

Turning to `CC(C)OC(=O)Nc1ccc2c(c1)nc(Nc1cccc(C(F)(F)F)c1)c1nc(NC3CC3)ncc12` [drawing 513], the figures for the IC50 in the assay with PanC1 and in the assay with BxPC3 were 9.88 µM and 0.9 µM, respectively.
